Measured values from EPA's ToxValDB 9.5.

System: Rattus norvegicus
Conditions: oral
[1] = subchronic, gavage, M, Sprague-Dawley, Deaths + Clinical Observation: Diarrhea SalivationSoft feces Decreased locomotor activity BradypneaIncomplete eyelid opening AnorexiaSoiled …
[2] = short-term, duration: 28 days, gavage, M, Sprague-Dawley, Clinical Observation: Yellow-orange urine Soft stool DiarrheaSalivation + Body Weight Changes: decrease + Food Consumption: decrease + …
[3] = short-term, duration: 28 days, gavage, F, Sprague-Dawley, Water Consumption: increase + Urinalysis: Volume increase, Osmolarity decrease, Bil increase + Hematology: RBC decrease300 Hgb decrease300 …
[4] = short-term, duration: 28 days, gavage, M, Sprague-Dawley, Water Consumption: increase + Urinalysis: Volume increase, Osmolarity decrease, Bil increase + Hematology: RBC decrease300 Hgb decrease300 …
[5] = subchronic, gavage, M, Sprague-Dawley, Clinical Observation: Salivation + Urinalysis: Volume increase, Tubular epithelial cell + Blood Chemistry: PL increasegamma-GTP increase, TP…
[6] = subchronic, gavage, M, Sprague-Dawley, Clinical Observation: Salivation Clonic convulsion + Body Weight Changes: Body weight gain decrease + Food Consumption: decrease + Water …
[7] = short-term, duration: 28 days, gavage, F, Sprague-Dawley, Clinical Observation: Piloerection + Urinalysis: pH decrease, K decrease + Relative Organ Weight: Spleen increase
[8] = short-term, duration: 28 days, gavage, M, Sprague-Dawley, Clinical Observation: Piloerection + Urinalysis: pH decrease, K decrease + Relative Organ Weight: Spleen increase

BrC1CCC(Br)C(Br)CCC1Br (stereo unspecified) [1,2,5,6-Tetrabromocyclooctane]
NOEL (subchronic, gavage, M, Sprague-Dawley, Food Consumption: decrease, R (recovery day3) + Blood Chemistry: TP increase, Alb increase + Absolute Organ Weight: Liver increase + …): < 40 mg/kg-day

CC(C)Nc1ccc(NC(C)C)c2c1C(=O)c1ccccc1C2=O [1,4-Bis(N-isopropylamino)anthraquinone]
NOEL (subchronic, duration: 42 days, gavage, M, CD(SD), Clinical Observation: Dark purple feces Purple urine Purple colored skin + Urinalysis: Lite purple colored urine Purple colored urine + …): 12 mg/kg-day

C=CCCCC=C(C)C [1,6-Octadiene, 7-methyl-]
NOEL (short-term, duration: 28 days, gavage, M/F, Clinical Observation: Salivation + Blood Chemistry: TG increase): 10 mg/kg-day

BrCCCCCCCCCCBr [1,10-Dibromodecane-]
NOEL (short-term, duration: 28 days, gavage, M/F, Sprague-Dawley, Clinical Observation: Salivation + Water Consumption: increase + Blood Chemistry: BUN increase, Cl increase + Absolute Organ Weight: Liver …): < 8 mg/kg-day

CC(C)N1C(=O)C=CC1=O [1-(Propan-2-yl)-1H-pyrrole-2,5-dione]
NOEL (short-term, duration: 28 days, gavage, M/F, Clinical Observation: Salivation + Organ Weight: Liver increase, Kidney increase + Necropsy: Liver- Enlargement Kidney- Enlargement): 40 mg/kg-day

O=[N+]([O-])c1ccc(Cl)c([N+](=O)[O-])c1 [1-Chloro-2,4-dinitrobenzene]
NOEL (subchronic, gavage, M, Sprague-Dawley, Relative Organ Weight: Thymus decrease + Histopathology: Stomach/forestomach- Squamous cell hyperplasia Stomach/forestomach -inflammatory …): 1 mg/kg-day

CCCCCl [1-Chlorobutane]
NOEL (subchronic, duration: 13 weeks, gavage, M/F, Fischer 344, Deaths + Clinical Observation: Convulsion + Body Weight Changes: decrease + Histopathology: Spleen-Extramedullary hematopoiesis): 60 mg/kg-day

C=CC(F)(F)C(F)(F)C(F)(F)C(F)(F)C(F)(F)C(F)(F)C(F)(F)C(F)(F)F [1H,1H,2H-Perfluoro-1-decene]
NOEL (short-term, duration: 28 days, gavage, M/F, Hematology: Trend of anemia + Blood Chemistry: GOT increase, GPT increase, T-CHO decrease + Absolute Organ Weight: Liver increase + …): 8 mg/kg-day

CC(C)CC(C)(C#N)N=NC(C)(C#N)CC(C)C (stereo unspecified) [2,2'-Azobis[2,4-dimethylvaleronitrile]]
NOEL (subchronic, gavage, M, Sprague-Dawley, Clinical Observation: Salivation + Blood Chemistry: gamma- GTP increase, TG decrease + Absolute Organ Weight: Liver increase, R + Relative …): 10 mg/kg-day

CCc1cc(Cc2cc(CC)cc(C(C)(C)C)c2O)c(O)c(C(C)(C)C)c1 [2,2'-Methylenebis(ethyl-6-tert-butylphenol)]
NOAEL [1]: 30 mg/kg-day | NOEL [1]: < 30 mg/kg-day

Cc1cc(O)c(C)c(C)c1O [2,3,5-Trimethylhydroquinone]
NOEL (subchronic, gavage, M, Sprague-Dawley, Deaths + Clinical Observation: Salivation Locomotor activity decrease, Irregular respiration + Body Weight Changes: decrease + Hematology: …): < 10 mg/kg-day

O=C(c1ccc(Cl)cc1)c1ccccc1Cl [2,4'-Dichlorobenzophenone]
NOEL (subchronic, gavage, M, Sprague-Dawley, Clinical Observation: Salivation (transient) + Functional Observational Battery: Salivation + Body Weight Changes: Gain decrease(trend) + …): 40 mg/kg-day

CCC(C)c1cc(C(C)(C)C)cc(-n2nc3ccccc3n2)c1O (stereo unspecified) [2-(2H-Benzotriazol-2-yl)-6-(butan-2-yl)-4-tert-butylphenol]
NOAEL (subchronic, duration: 42 days, gavage, M, Sprague-Dawley, Hematology: HGB decrease + Blood Chemistry: TP increase, Alb increase, A/G increase, ALP increase, ChE increase + Absolute Organ Weight: …): 4 mg/kg-day | NOEL (subchronic, gavage, M, Sprague-Dawley, Blood Chemistry: TG decrease PL decrease Alb increase A/G increase Alp increase + Absolute Organ Weight: Liver increase + Relative Organ …): < 0.5 mg/kg-day

Nc1cc([N+](=O)[O-])ccc1O [2-Amino-4-nitrophenol]
NOAEL [2]: < 150 mg/kg-day | NOEL [2]: < 150 mg/kg-day | NOEL (subchronic, duration: 13 weeks, gavage, M/F, Fischer 344, Deaths + Body Weight Changes: decrease + Absolute Organ Weight: Liver increase + Relative Organ Weight: Liver increase + Histopathology: …): 125 mg/kg-day

Cl.Nc1ccccc1-c1ccccc1 [2-Biphenylamine hydrochloride]
NOEL (subchronic, duration: 13 weeks, diet, M/F, Fischer 344, Histopathology: Spleen-Congestion Spleen-Extramedullary hematopoiesis Spleen-Hemosiderosis Spleen-Thickened capsule Spleen-Lymphoid atrophy …): 28.8 mg/kg-day

Nc1ccccc1-c1ccccc1 [2-Biphenylamine]
LOEL [3]: 30 mg/kg-day | NOEL [3]: < 30 mg/kg-day | LOEL [4]: 100 mg/kg-day | NOEL [4]: 30 mg/kg-day

CCCCC(CC)(CO)CO [2-Butyl-2-ethyl-1,3-propanediol]
NOAEL (subchronic, gavage, M, Sprague-Dawley, Clinical Observation: Staggering gait + Water Consumption: increase + Urinalysis: pH decrease + Hematology: LYMPH increase, NEUT decrease + …): 20 mg/kg-day

OCC#CCO [2-Butyne-1,4-diol]
NOEL (short-term, duration: 28 days, gavage, M/F, Wistar, Deaths + Body Weight Changes: decrease + Food Consumption: decrease + Hematology: RET increase, WBC increase, Neut increase, Lymph increase…): 1 mg/kg-day

Nc1ccccc1Cl [2-Chloroaniline]
NOEL (subchronic, gavage, M/F, Fischer 344, Deaths + Clinical Observation: Tremors Wasting Bluish discoloration of genital and footpad regions + Body Weight Changes: decrease + …): < 10 mg/kg-day

CCc1ccccc1N [2-Ethylaniline]
NOEL (subchronic, duration: 42 days, gavage, M, CD(SD), Hematology: RBC decrease, HGB decrease, MCV increase, MCH increase, MCHC decrease, RET increase + Blood Chemistry: Alb increase A/G …): 3 mg/kg-day

CCCCCCCC1CCCC1=O (stereo unspecified) [2-Heptylcyclopentanone]
NOAEL [5]: 200 mg/kg-day | NOEL [5]: 50 mg/kg-day

S=c1[nH]c2ccccc2[nH]1 [2-Mercaptobenzimidazole]
NOEL (short-term, duration: 28 days, gavage, M/F, Wistar, Body Weight Changes: decrease + Food Consumption: decrease + Hematology: Hct decrease, Plt decrease, WBC decrease, APTT increase + Blood …): < 2 mg/kg-day

CCCCCCOCCOCCO [2-[2-(Hexyloxy)ethoxy]ethanol]
NOAEL (subchronic, duration: 53 days, diet, M, SD(CD), Body Weight Changes: Mean body weight decrease + Food Consumption: decrease + Urinalysis: pH decrease + Relative Organ Weight: Liver …): 300 mg/kg-day

CC(=O)OC1CCCCC1C(C)(C)C (stereo unspecified) [2-tert-Butylcyclohexyl acetate]
NOAEL [6]: < 50 mg/kg-day | NOEL [6]: < 50 mg/kg-day

O=[N+]([O-])c1ccc(Cl)c(Cl)c1 [3,4-Dichloronitrobenzene]
NOEL (subchronic, gavage, M, Sprague-Dawley, Hematology: RBC decrease, Hct decrease, MCV increase, MCH increase, Hgb decrease, MCHC decrease, Ret increase + Blood Chemistry: T-Bil: …): < 4 mg/kg-day

O=C1CCc2ccccc2O1 [3,4-Dihydrocoumarin]
NOEL (subchronic, duration: 13 weeks, gavage, M/F, Fischer 344, Deaths + Body Weight Changes: decrease + Hematology: Plt decrease, Hct decrease, Hgb decrease, RBC decrease, WBC decrease, Lympho decrease…): < 75 mg/kg-day

CSCCC=O [3-(Methylthio)propanal]
NOAEL (short-term, duration: 28 days, gavage, M/F, Wistar, Body Weight Changes: Mean body weight decrease, Weight gain decrease + Hematology: RBC decrease, HGB decrease + Blood Chemistry: T-Bil …): 104 mg/kg-day

Nc1nc(=S)[nH][nH]1 [3-Amino-1,2,4-triazole-5-thiol]
NOEL (subchronic, gavage, M/F, Sprague-Dawley, Deaths + Clinical Observation: White turbid urine SalivationSoft stool + Body Weight Changes: decrease + Food Consumption: decrease + …): 10 mg/kg-day

O=C(O)c1cccc([N+](=O)[O-])c1C(=O)O [3-Nitrophthalic acid]
NOAEL [7]: 500 mg/kg-day | NOEL [7]: 500 mg/kg-day | LOEL [8]: 500 mg/kg-day | NOAEL [8]: 500 mg/kg-day | NOEL [8]: 100 mg/kg-day

ClCc1ccc(-c2ccc(CCl)cc2)cc1 [4,4'-Bis(chloromethyl)-1,1'-biphenyl]
NOEL (subchronic, gavage, Sprague-Dawley): 1000 mg/kg-day

Cc1ccc(Nc2ccc(C)cc2)cc1 [4,4'-Dimethyldiphenylamine]
NOEL (short-term, duration: 28 days, gavage, M/F, Clinical Observation: Salivation + Blood Chemistry: GOT increase, GPT increase, gamma-GTP increase, T-CHO increase, TG increase, IP …): 30 mg/kg-day

CC(C)(C1CCC(O)CC1)C1CCC(O)CC1 (stereo unspecified) [4,4'-Propane-2,2-diyldicyclohexanol]
NOEL (subchronic, gavage, M, Sprague-Dawley, Hematology: APTT increase, PT increase + Blood Chemistry: TG increase, TP increase, Ca increasegamma-GTP increase, Glu decrease, Cho …): 20 mg/kg-day

COc1cc(N)ccc1NC(=O)c1ccc(N)cc1 [4-Amino-N-(4-amino-2-methoxyphenyl)benzamide]
NOEL (short-term, duration: 28 days, gavage, M/F, Deaths + Clinical Observation: Locomotor activity increase, Tremor (temporary)Loss of righting reflex Motor ataxia Lethargy (severe) + Blood…): 10 mg/kg-day
